Experimental data reported in patent EP1038880B1, “Androstanes and pregnanes for allosteric modulation of GABA receptor” (priority 1994, dated 1995).

Legend:
[1] = tested on: metrazol induced convulsions; assay: animal or person; type: in vivo, mice; settings: for responders at 10 mg/kg: Mus musculus, 10 min, 10 minutes prior to metrazol (85 mg/kg), read-out: % Protected
Description: Experiments were also performed to determine the physiological relevance of neuroactive steroid and GABA receptor interactions by assessing the ability of the compounds of and used in the invention to prevent metrazol induced convulsions in mice. Mice were injected with various doses of the test compounds of the invention, 10 minutes prior to the injection of metrazol. The time to onset of myoclomis (presence of forelimb clonic activity) induced by metrazol was determined by observing each mouse for a period of 30 minutes. […] Table 6: Antimetrazol Activity of Neuroactive Steroids in Mice
The anticonvulsant tests are similar to that described above. […] The number of animals with tonic and/or clonic convulsions was recorded. In the maximal electroshock test, 50 mA of current at 60 Hz was delivered through corneal electrodes for 200 msec to induce tonic seizure. The ability of compounds to abolish the tonic component was defined as the endpoint. General CNS depression potential was determined by a rotorod test 10 minutes after the injection of compounds where the number of mice staying on a rotating (6 rpm) rod for 1 minute in one of the three trials was determined. […] Table 7. Anticonvulsant Activity of Exemplified Neuroactive Steroids and those of Selected Clinically Useful Anticonvulsants in Mice

GR complex = assay: [35S]TBPS binding assay (inhibition of [35S]TBPS binding, cerebral cortex P2 homogenate); design: species or system rat; settings: for IC50: 2 nM [35S]TBPS, rat cerebral cortex P2 homogenate; for IMAX: maximum inhibition of [35S]TBPS binding
Method in brief: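 Rat (male Sprague-Dawley) cortical P2 homogenate (0.5 mg protein) in 50 mM Na/K phosphate pH 7.4, 200 mM NaCl, incubated with 2 nM [35S]TBPS plus steroid test compounds (DMSO) in presence of GABA plus (+)bicuculline, 25°C, 90 min. Filtration, scintillation counting; nonspecific binding defined with […].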

[2] = tested on: N.I.H. Swiss-Webster mice; assay: Elevated plus-maze; type: in vivo; settings: for response vs control in vivo at 10 mg/kg: Mus musculus, ip, read-out: % Control
Description: The theoretical basis for the elevated plus-maze test is similar to that of the light/dark transition test. […] The apparatus consists of two open-arms and two enclosed-arms. The elevated plus-maze test allows for two measures of anxiety, the number of entries into the open-arms and the time spent on the open-arms, both expressed as a percentage of the total number of entries and time spent in/on both the open-arms and enclosed-arms.
Male N.LH. Swiss-Webster mice (Harlan, Indianapolis, IN) weighing 15-20 g were housed four per cage in polyethylene cages with sawdust bedding. The colony mom was environmentally controlled (22°C) with a 12^- hr light/dark cycle (0600-1800 hr). Food and water were available ad libitum, except during testing. The experiments were run from 0700-1500 hr and groups were counterbalance for time of day effects. Mice were only administered drug or vehicle once.
The apparatus included two open arms perpendicular to two enclosed arms elevated 50 cm from the floor. Each arm was 50 cm long and the walls of the enclosed arms were 40 cm tall. The maze was made completely of black plexiglass. Incandescent 200 W light bulbs were above each of the open arms to produce a strong contrast between the open arms and the enclosed arms.
Ten minutes after an injection, the N.I.H. Swiss-Webster mice were placed in the center of the plus-maze facing an open arm. During the 5 min test period, the number of entries onto the open arms and the enclosed arms, and the time spent in the open arms and enclosed arms were measured. All four paws had to be within an arm for the dependent variable to be measured. Therefore, the time spent in the center of the maze is not counted, so the total time spent in the open arms and the enclosed arms may not equal 5 min.

CC(=O)[C@H]1CC[C@H]2[C@@H]3CC[C@@H]4C[C@@](O)(C#Cc5ccccn5)CC[C@]4(C)[C@H]3CC[C@]12C [3α-Hydroxy-3β-(2-pyridyl)ethynyl-5β-pregnan-20-one]
responders at 10 mg/kg ([1]; IP, 10 mg/kg): 37.5%
IC50 (GR complex): 108 nM
IMAX (GR complex): 98%
response vs control in vivo at 10 mg/kg [2]: 123%

CC(=O)[C@H]1CC[C@H]2[C@@H]3CC[C@@H]4C[C@@](O)(C#CCn5ccnn5)CC[C@]4(C)[C@H]3CC[C@]12C [3α-Hydroxy-3β-[3-(1'H-1,2,3-triazol-1'-yl)-1-propynyl]-5β-pregnan-20-one]
responders at 10 mg/kg ([1]; IP, 10 mg/kg): 25%
IC50 (GR complex): 655 nM
IMAX (GR complex): 102%
response vs control in vivo at 10 mg/kg [2]: 116%

C[C@@]1(O)CC[C@@]2(C)[C@@H](CC[C@@H]3[C@@H]2CC[C@]2(C)[C@@H](C(=O)Cn4cncn4)CC[C@@H]32)C1 [3α-Hydroxy-3β-methyl-21-(1',2',4'-triazolyl)-5α-pregnan-20-one]
responders at 10 mg/kg ([1]; IP, 10 mg/kg): 87.5%
IC50 (GR complex): 125 nM
IMAX (GR complex): 105%
response vs control in vivo at 10 mg/kg [2]: 153%

COc1ccccc1C#C[C@@]1(O)CC[C@@]2(C)[C@H](CC[C@@H]3[C@@H]2CC[C@]2(C)[C@@H](C(C)=O)CC[C@@H]32)C1 [3α-hydroxy-3β-(2'-methoxyphenyl)ethynyl-5β-pregnan-20-one]
responders at 10 mg/kg ([1]; IP, 10 mg/kg): 12.5%
IC50 (GR complex): 238 nM
IMAX (GR complex): 99%
response vs control in vivo at 10 mg/kg [2]: 152%

CC(=O)[C@H]1CC[C@H]2[C@@H]3CC[C@@H]4C[C@@](O)(C#Cc5cccs5)CC[C@]4(C)[C@H]3CC[C@]12C [3α-hydroxy-3β-(2'-thienyl)ethynyl-5β-pregnan-20-one]
responders at 10 mg/kg ([1]; IP, 10 mg/kg): 37.5%
IC50 (GR complex): 59 nM
IMAX (GR complex): 100%
response vs control in vivo at 10 mg/kg [2]: 148%

CC(=O)[C@H]1CC[C@H]2[C@@H]3CC[C@@H]4C[C@@](O)(C#Cc5ccc(C)cc5)CC[C@]4(C)[C@H]3CC[C@]12C [3α-hydroxy-3β-(4'-methylphenylethynyl)-5β-pregnan-20-one]
responders at 10 mg/kg ([1]; IP, 10 mg/kg): 75%
IC50 (GR complex): 88 nM
IMAX (GR complex): 84%
response vs control in vivo at 10 mg/kg [2]: 148%

CC(=O)[C@H]1CC[C@H]2[C@@H]3CC[C@@H]4C[C@@](O)(C#CCn5cccn5)CC[C@]4(C)[C@H]3CC[C@]12C [3α-hydroxy-3β-[3-(1'H-pyrazol-1'-yl)-1-propynyl]-5β-pregnan-20-one]
responders at 10 mg/kg ([1]; IP, 10 mg/kg): 25%
IC50 (GR complex): 81 nM
IMAX (GR complex): 98%
response vs control in vivo at 10 mg/kg [2]: 116%

C#CCOCC#C[C@@]1(O)CC[C@@]2(C)[C@H](CC[C@@H]3[C@@H]2CC[C@]2(C)[C@@H](C(C)=O)CC[C@@H]32)C1 [3α-hydroxy-3β-[3-(2'-propynyloxy)-1-propynyl]-5β-pregnan-20-one]
responders at 10 mg/kg ([1]; IP, 10 mg/kg): 50%
IC50 (GR complex): 28 nM
IMAX (GR complex): 105%
response vs control in vivo at 10 mg/kg [2]: 178%

CC(=O)CCCC#C[C@@]1(O)CC[C@@]2(C)[C@H](CC[C@@H]3[C@@H]2CC[C@]2(C)[C@@H](C(C)=O)CC[C@@H]32)C1 [3α-hydroxy-3β-[6'-oxo-1'-heptynyl]-5β-pregnan-20-one]
responders at 10 mg/kg ([1]; IP, 10 mg/kg): 62.5%
IC50 (GR complex): 90 nM
IMAX (GR complex): 101%
response vs control in vivo at 10 mg/kg [2]: 130%

C[C@@]1(O)CC[C@@]2(C)[C@@H](CC[C@@H]3[C@@H]2CC[C@]2(C)[C@@H](C(=O)Cn4ccnc4)CC[C@@H]32)C1 [3α-hydroxy-21-(1'-imidazolyl)-3β-methyl-5α-pregnan-20-one]
responders at 10 mg/kg ([1]; IP, 10 mg/kg): 75%
IC50 (GR complex): 97 nM
IMAX (GR complex): 95%
response vs control in vivo at 10 mg/kg [2]: 144%

C[C@@]1(O)CC[C@@]2(C)[C@@H](CC[C@@H]3[C@@H]2CC[C@]2(C)[C@@H](C(=O)Cn4cccn4)CC[C@@H]32)C1 [3α-hydroxy-21-(1'-pyrazolyl)-3β-methyl-5α-pregnan-20-one]
responders at 10 mg/kg ([1]; IP, 10 mg/kg): 87.5%
IC50 (GR complex): 115 nM
IMAX (GR complex): 98%
response vs control in vivo at 10 mg/kg [2]: 154%

Cc1cc(C)n(CC(=O)[C@H]2CC[C@H]3[C@@H]4CC[C@@H]5C[C@H](O)CC[C@]5(C)[C@H]4CC[C@]23C)n1 [3α-hydroxy-21-(1H-3,5-dimethylpyrazolyl)-5β-pregnan-20-one]
responders at 10 mg/kg ([1]; IP, 10 mg/kg): 50%
IC50 (GR complex): 96 nM
IMAX (GR complex): 77%
response vs control in vivo at 10 mg/kg [2]: 128%

C[C@]12CC[C@@H](O)C[C@H]1CC[C@@H]1[C@@H]2CC[C@]2(C)[C@@H](C(=O)Cn3nccn3)CC[C@@H]12 [3α-hydroxy-21-(2H-1,2,3-triazol-2-yl)-5β-pregnan-20-one]
responders at 10 mg/kg ([1]; IP, 10 mg/kg): 100%
IC50 (GR complex): 56 nM
IMAX (GR complex): 79%
response vs control in vivo at 10 mg/kg [2]: 164%

C[C@]12CC[C@@H](O)C[C@H]1CC[C@@H]1[C@@H]2CC[C@]2(C)[C@@H](C(=O)Cn3cccn3)CC[C@@H]12 [3α-hydroxy-21-(pyrazol-1-yl)-5β-pregnan 20-one]
responders at 10 mg/kg ([1]; IP, 10 mg/kg): 62.5%
IC50 (GR complex): 121 nM
IMAX (GR complex): 67%
response vs control in vivo at 10 mg/kg [2]: 129%

CC(=O)c1ccc(C#C[C@@]2(O)CC[C@@]3(C)[C@@H](CC[C@@H]4[C@@H]3CC[C@]3(C)[C@@H](C(=O)COC(=O)CCC(=O)[O-])CC[C@@H]43)C2)cc1.[Na+] [3β-(4'-Acetylphenylethynyl)-3α,21-dihidroxy-5α-pregnan-20-one 21-hemisuccinate sodium salt]
% Protected ([1]; PO, 10 mg/kg, water): 80%
% Control ([2]; PO, 10 mg/kg, water): 166%

CC(=O)c1ccc(C#CC2(O)CCC3(C)C(CCC4C3CCC3(C)C(C(=O)COC(=O)CCC(=O)[O-])CCC43)C2)cc1.[Na+] (stereo not drawn) [3β-(4'-Acetylphenylethynyl)-3α,21-dihydroxy-5β-pregnan-20-one 21-hemisuccinate sodium salt]
% Protected ([1]; PO, 10 mg/kg, water): 75%
% Control ([2]; PO, 10 mg/kg, water): 248%

CC(=O)c1ccc(C#CC2(O)CCC3(C)C(CCC4C3CCC3(C)C(C(=O)CO)CCC43)C2)cc1 (stereo not drawn) [3β-(4'-Acetylphenylethynyl)-3α-21-dihydroxy-5α-pregnan-20-one]
% Protected ([1]; IP, 1 mg/kg, 50% hpbcd): 87.5%
IC50 (GR complex): 4 nM
IMAX (GR complex): 92%
% Control ([2]; IP, 1 mg/kg, 50% hpbcd): 150%

CC(=O)[C@H]1CC[C@H]2[C@@H]3CC[C@@H]4C[C@@](O)(C#Cc5ccc(C#N)cc5)CC[C@]4(C)[C@H]3CC[C@]12C [3β-(4'-Cyanophenyl)ethynyl-3α-hydroxy-5β-pregnan-20-one]
responders at 10 mg/kg ([1]; IP, 10 mg/kg): 43.7%
IC50 (GR complex): 73 nM
IMAX (GR complex): 92%
response vs control in vivo at 10 mg/kg [2]: 169%

CC(=O)c1ccc(C#C[C@@]2(O)CC[C@@]3(C)[C@H](CC[C@@H]4[C@@H]3CC[C@]3(C)[C@@H](C(=O)CO)CC[C@@H]43)C2)cc1 [3β-(4'-acetylphenylethynyl)-3α,21-dihydroxy-5β-pregnan-20-one]
responders at 10 mg/kg ([1]; IP, 10 mg/kg): 75%
IC50 (GR complex): 22 nM
IMAX (GR complex): 99%
response vs control in vivo at 10 mg/kg [2]: 115%

CC(=O)[C@H]1CC[C@H]2[C@@H]3CC[C@@H]4C[C@@](O)(C#Cc5ccc(-c6ccccc6)cc5)CC[C@]4(C)[C@H]3CC[C@]12C [3β-(4'-biphenylethynyl)-3α-hydroxy-5β-pregnan-20-one]
responders at 10 mg/kg ([1]; IP, 10 mg/kg): 0%
IC50 (GR complex): 43 nM
IMAX (GR complex): 83%
response vs control in vivo at 10 mg/kg [2]: 111%

CC(=O)[C@H]1CC[C@H]2[C@@H]3CC[C@@H]4C[C@@](O)(C#CCCCO)CC[C@]4(C)[C@H]3CC[C@]12C [3β-(5'-hydroxy-1'-pentynyl)-3α-hydroxy-5β-pregnan-20-one]
responders at 10 mg/kg ([1]; IP, 10 mg/kg): 12.5%
IC50 (GR complex): 58 nM
IMAX (GR complex): 100%
response vs control in vivo at 10 mg/kg [2]: 137%

CC(=O)[C@H]1CC[C@H]2[C@@H]3CC[C@@H]4C[C@@](O)(C#CCCCC#N)CC[C@]4(C)[C@H]3CC[C@]12C [3β-(5-Cyano-1-pentynyl)-3α-hydroxy-5β-pregnan-20-one]
responders at 10 mg/kg ([1]; IP, 10 mg/kg): 25%
IC50 (GR complex): 158 nM
IMAX (GR complex): 100%

CC12CCC3C4CCC(O)(C(F)(F)F)CC4CCC3C1CCC2C(=O)CSS(=O)(=O)[O-].[Na+] (stereo not drawn) [Sodium S-(3α-hydroxy-3β-trifluoromethyl-5β-19-norpregnan-20-on-21-yl) thiosulfate]
% Protected ([1]; IP, 40 mg/kg, water): 37.5%
IC50 (GR complex): 325 nM
IMAX (GR complex): 98%
